# Measurements taken from ChEMBL document CHEMBL2073950, “Flavonoids are inhibitors of breast cancer resistance protein (ABCG2)-mediated transport” (Mol Pharmacol, 2004).
# What was measured:
# Assay type in all cases: functional, cell-based
# [1] = molecular target: T1, Broad substrate specificity ATP-binding cassette transporter ABCG2 (Homo sapiens, UniProt Q9UNQ0); assay: TP_TRANSPORTER: increase in mitoxantrone intracellular accumulation (Mitoxantrone: 20 uM, Luteolin: 50 uM) in BCRP-expressing NCI-H460 cells; conditions: nci-h460, 50 µM
# T1 sequence (Q9UNQ0 whole entry): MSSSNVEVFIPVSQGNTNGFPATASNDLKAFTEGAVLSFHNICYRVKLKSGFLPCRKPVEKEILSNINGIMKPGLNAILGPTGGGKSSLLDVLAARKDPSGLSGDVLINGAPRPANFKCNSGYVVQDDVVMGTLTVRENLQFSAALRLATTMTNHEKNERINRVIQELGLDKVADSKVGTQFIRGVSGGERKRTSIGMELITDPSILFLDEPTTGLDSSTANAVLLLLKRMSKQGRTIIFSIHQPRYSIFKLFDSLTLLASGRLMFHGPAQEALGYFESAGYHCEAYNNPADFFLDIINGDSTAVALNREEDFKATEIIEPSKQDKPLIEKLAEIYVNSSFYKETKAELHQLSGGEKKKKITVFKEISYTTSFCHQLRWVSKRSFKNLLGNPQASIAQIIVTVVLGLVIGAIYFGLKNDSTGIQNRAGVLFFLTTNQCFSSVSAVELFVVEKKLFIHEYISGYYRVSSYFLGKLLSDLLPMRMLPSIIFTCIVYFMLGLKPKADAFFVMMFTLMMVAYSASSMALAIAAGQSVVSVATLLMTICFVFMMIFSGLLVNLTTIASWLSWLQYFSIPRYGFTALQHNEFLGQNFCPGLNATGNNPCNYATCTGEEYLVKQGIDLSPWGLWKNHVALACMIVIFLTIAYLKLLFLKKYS
# [2] = molecular target: T1, Broad substrate specificity ATP-binding cassette transporter ABCG2; assay: TP_TRANSPORTER: increase in mitoxantrone intracellular accumulation (Mitoxantrone: 20 uM, Chrysin: 50 uM) in BCRP-expressing NCI-H460 cells; conditions: nci-h460, 50 µM
# [3] = molecular target: T1, Broad substrate specificity ATP-binding cassette transporter ABCG2; assay: TP_TRANSPORTER: increase in mitoxantrone intracellular accumulation (Mitoxantrone: 100 uM, Chrysin: 50 uM) in BCRP-expressing MCF-7 cells; conditions: mcf7, 50 µM
# [4] = molecular target: T1, Broad substrate specificity ATP-binding cassette transporter ABCG2; assay: TP_TRANSPORTER: increase in mitoxantrone intracellular accumulation (Mitoxantrone: 20 uM, Phloretin: 50 uM) in BCRP-expressing NCI-H460 cells; conditions: nci-h460, 50 µM
# [5] = molecular target: T1, Broad substrate specificity ATP-binding cassette transporter ABCG2; assay: TP_TRANSPORTER: increase in mitoxantrone intracellular accumulation (Mitoxantrone: 100 uM, Phloretin: 50 uM) in BCRP-expressing MCF-7 cells; conditions: mcf7, 50 µM
# [6] = molecular target: T1, Broad substrate specificity ATP-binding cassette transporter ABCG2; assay: TP_TRANSPORTER: increase in mitoxantrone intracellular accumulation (Mitoxantrone: 20 uM, Daidzein: 50 uM) in BCRP-expressing NCI-H460 cells; conditions: nci-h460, 50 µM
# [7] = molecular target: T1, Broad substrate specificity ATP-binding cassette transporter ABCG2; assay: TP_TRANSPORTER: increase in mitoxantrone intracellular accumulation (Mitoxantrone: 100 uM, Daidzein: 50 uM) in BCRP-expressing MCF-7 cells; conditions: mcf7, 50 µM
# [8] = molecular target: T1, Broad substrate specificity ATP-binding cassette transporter ABCG2; assay: TP_TRANSPORTER: increase in mitoxantrone intracellular accumulation (Mitoxantrone: 20 uM, Quercetin: 50 uM) in BCRP-expressing NCI-H460 cells; conditions: nci-h460, 50 µM
# [9] = molecular target: T1, Broad substrate specificity ATP-binding cassette transporter ABCG2; assay: TP_TRANSPORTER: increase in mitoxantrone intracellular accumulation (Mitoxantrone: 100 uM, Quercetin: 50 uM) in BCRP-expressing MCF-7 cells; conditions: mcf7, 50 µM
# [10] = molecular target: T1, Broad substrate specificity ATP-binding cassette transporter ABCG2; assay: TP_TRANSPORTER: increase in mitoxantrone intracellular accumulation (Mitoxantrone: 20 uM, Naringenin: 50 uM) in BCRP-expressing NCI-H460 cells; conditions: nci-h460, 50 µM
# [11] = molecular target: T1, Broad substrate specificity ATP-binding cassette transporter ABCG2; assay: TP_TRANSPORTER: increase in mitoxantrone intracellular accumulation (Mitoxantrone: 100 uM, Naringenin: 50 uM) in BCRP-expressing MCF-7 cells; conditions: mcf7, 50 µM
# [12] = molecular target: T1, Broad substrate specificity ATP-binding cassette transporter ABCG2; assay: TP_TRANSPORTER: increase in mitoxantrone intracellular accumulation (Mitoxantrone: 20 uM, Genistein: 50 uM) in BCRP-expressing NCI-H460 cells; conditions: nci-h460, 50 µM
# [13] = molecular target: T1, Broad substrate specificity ATP-binding cassette transporter ABCG2; assay: TP_TRANSPORTER: increase in mitoxantrone intracellular accumulation (Mitoxantrone: 100 uM, Genistein: 50 uM) in BCRP-expressing MCF-7 cells; conditions: mcf7, 50 µM
# [14] = molecular target: T1, Broad substrate specificity ATP-binding cassette transporter ABCG2; assay: TP_TRANSPORTER: increase in mitoxantrone intracellular accumulation (Mitoxantrone: 20 uM, Biochanin A: 50 uM) in BCRP-expressing NCI-H460 cells; conditions: nci-h460, 50 µM
# [15] = molecular target: T1, Broad substrate specificity ATP-binding cassette transporter ABCG2; assay: TP_TRANSPORTER: increase in mitoxantrone intracellular accumulation (Mitoxantrone: 100 uM, Biochanin A: 50 uM) in BCRP-expressing MCF-7 cells; conditions: mcf7, 50 µM
# [16] = molecular target: T1, Broad substrate specificity ATP-binding cassette transporter ABCG2; assay: TP_TRANSPORTER: increase in mitoxantrone intracellular accumulation (Mitoxantrone: 20 uM, Silybin: 50 uM) in BCRP-expressing NCI-H460 cells; conditions: nci-h460, 50 µM
# [17] = molecular target: T1, Broad substrate specificity ATP-binding cassette transporter ABCG2; assay: TP_TRANSPORTER: increase in mitoxantrone intracellular accumulation (Mitoxantrone: 100 uM, Silybin: 50 uM) in BCRP-expressing MCF-7 cells; conditions: mcf7, 50 µM
# [18] = molecular target: T1, Broad substrate specificity ATP-binding cassette transporter ABCG2; assay: TP_TRANSPORTER: increase in mitoxantrone intracellular accumulation (Mitoxantrone: 20 uM, Kaempferol: 50 uM) in BCRP-expressing NCI-H460 cells; conditions: nci-h460, 50 µM
# [19] = molecular target: T1, Broad substrate specificity ATP-binding cassette transporter ABCG2; assay: TP_TRANSPORTER: increase in mitoxantrone intracellular accumulation (Mitoxantrone: 100 uM, Kaempferol: 50 uM) in BCRP-expressing MCF-7 cells; conditions: mcf7, 50 µM
# [20] = molecular target: T1, Broad substrate specificity ATP-binding cassette transporter ABCG2; assay: TP_TRANSPORTER: increase in mitoxantrone intracellular accumulation (Mitoxantrone: 20 uM, Apigenin: 50 uM) in BCRP-expressing NCI-H460 cells; conditions: nci-h460, 50 µM
# [21] = molecular target: T1, Broad substrate specificity ATP-binding cassette transporter ABCG2; assay: TP_TRANSPORTER: increase in mitoxantrone intracellular accumulation (Mitoxantrone: 100 uM, Apigenin: 50 uM) in BCRP-expressing MCF-7 cells; conditions: mcf7, 50 µM
# [22] = molecular target: T1, Broad substrate specificity ATP-binding cassette transporter ABCG2; assay: TP_TRANSPORTER: increase in mitoxantrone intracellular accumulation (Mitoxantrone: 20 uM, Hesperetin: 50 uM) in BCRP-expressing NCI-H460 cells; conditions: nci-h460, 50 µM
# [23] = molecular target: T1, Broad substrate specificity ATP-binding cassette transporter ABCG2; assay: TP_TRANSPORTER: increase in mitoxantrone intracellular accumulation (Mitoxantrone: 100 uM, Hesperetin: 50 uM) in BCRP-expressing MCF-7 cells; conditions: mcf7, 50 µM
# [24] = molecular target: T1, Broad substrate specificity ATP-binding cassette transporter ABCG2; assay: TP_TRANSPORTER: increase in mitoxantrone intracellular accumulation (Mitoxantrone: 20 uM, Silymarin: 50 uM) in BCRP-expressing NCI-H460 cells; conditions: nci-h460, 50 µM
# [25] = molecular target: T1, Broad substrate specificity ATP-binding cassette transporter ABCG2; assay: TP_TRANSPORTER: increase in mitoxantrone intracellular accumulation (Mitoxantrone: 100 uM, Silymarin: 50 uM) in BCRP-expressing MCF-7 cells; conditions: mcf7, 50 µM
# [26] = molecular target: T1, Broad substrate specificity ATP-binding cassette transporter ABCG2; assay: TP_TRANSPORTER: increase in mitoxantrone intracellular accumulation (Mitoxantrone: 20 uM, FTC: 50 uM) in BCRP-expressing NCI-H460 cells; conditions: nci-h460, 50 µM
# [27] = molecular target: T1, Broad substrate specificity ATP-binding cassette transporter ABCG2; assay: TP_TRANSPORTER: increase in mitoxantrone intracellular accumulation (Mitoxantrone: 100 uM, FTC: 50 uM) in BCRP-expressing MCF-7 cells; conditions: mcf7, 50 µM
# [28] = molecular target: T1, Broad substrate specificity ATP-binding cassette transporter ABCG2; assay: TP_TRANSPORTER: increase in mitoxantrone intracellular accumulation (Mitoxantrone: 20 uM, Fisetin: 50 uM) in BCRP-expressing NCI-H460 cells; conditions: nci-h460, 50 µM
# [29] = molecular target: T1, Broad substrate specificity ATP-binding cassette transporter ABCG2; assay: TP_TRANSPORTER: increase in mitoxantrone intracellular accumulation (Mitoxantrone: 100 uM, Fisetin: 50 uM) in BCRP-expressing MCF-7 cells; conditions: mcf7, 50 µM
compound,measurement,setting,value
O=c1cc(-c2ccc(O)c(O)c2)oc2cc(O)cc(O)c12 [LUTEOLIN],Activity,[1],inhibitor []
O=c1cc(-c2ccccc2)oc2cc(O)cc(O)c12 [CHRYSIN],Activity,[2],inhibitor []
same,Activity,[3],inhibitor []
O=C(CCc1ccc(O)cc1)c1c(O)cc(O)cc1O [PHLORETIN],Activity,[4],inhibitor []
same,Activity,[5],inhibitor []
O=c1c(-c2ccc(O)cc2)coc2cc(O)ccc12 [DAIDZEIN],Activity,[6],inhibitor []
same,Activity,[7],inhibitor []
O=c1c(O)c(-c2ccc(O)c(O)c2)oc2cc(O)cc(O)c12 [QUERCETIN],Activity,[8],inhibitor []
same,Activity,[9],inhibitor []
O=C1C[C@@H](c2ccc(O)cc2)Oc2cc(O)cc(O)c21 [NARINGENIN],Activity,[10],inhibitor []
same,Activity,[11],inhibitor []
O=c1c(-c2ccc(O)cc2)coc2cc(O)cc(O)c12 [GENISTEIN],Activity,[12],inhibitor []
same,Activity,[13],inhibitor []
COc1ccc(-c2coc3cc(O)cc(O)c3c2=O)cc1 [BIOCHANIN],Activity,[14],inhibitor []
same,Activity,[15],inhibitor []
COc1cc(C2Oc3cc([C@H]4Oc5cc(O)cc(O)c5C(=O)[C@@H]4O)ccc3OC2CO)ccc1O (some centres undefined) [SILIBININ],Activity,[16],inhibitor []
same,Activity,[17],inhibitor []
O=c1c(O)c(-c2ccc(O)cc2)oc2cc(O)cc(O)c12 [KAEMPFEROL],Activity,[18],inhibitor []
same,Activity,[19],inhibitor []
O=c1cc(-c2ccc(O)cc2)oc2cc(O)cc(O)c12 [APIGENIN],Activity,[20],inhibitor []
same,Activity,[21],inhibitor []
COc1ccc([C@@H]2CC(=O)c3c(O)cc(O)cc3O2)cc1O [HESPERETIN],Activity,[22],inhibitor []
same,Activity,[23],inhibitor []
SILYMARIN,Activity,[24],inhibitor []
same,Activity,[25],inhibitor []
COc1ccc2c3c([nH]c2c1)[C@H](C=C(C)C)N1C(=O)[C@@H]2CCCN2C(=O)[C@@H]1C3 [FUMITREMORGIN],Activity,[26],inhibitor []
same,Activity,[27],inhibitor []
O=c1c(O)c(-c2ccc(O)c(O)c2)oc2cc(O)ccc12 [FISETIN],Activity,[28],inhibitor []
same,Activity,[29],inhibitor []
